Our source for the IC50 values is patent publication US9452986B2, “6-heteroaryloxy- or 6-aryloxy-quinoline-2-carboxamides and method of use” (AbbVie Inc., priority 2014, dated 2016).

Structures are written as SMILES. Some results are limits rather than exact numbers.

Chain of recombinant human Nav1.7 (Q15858 whole entry): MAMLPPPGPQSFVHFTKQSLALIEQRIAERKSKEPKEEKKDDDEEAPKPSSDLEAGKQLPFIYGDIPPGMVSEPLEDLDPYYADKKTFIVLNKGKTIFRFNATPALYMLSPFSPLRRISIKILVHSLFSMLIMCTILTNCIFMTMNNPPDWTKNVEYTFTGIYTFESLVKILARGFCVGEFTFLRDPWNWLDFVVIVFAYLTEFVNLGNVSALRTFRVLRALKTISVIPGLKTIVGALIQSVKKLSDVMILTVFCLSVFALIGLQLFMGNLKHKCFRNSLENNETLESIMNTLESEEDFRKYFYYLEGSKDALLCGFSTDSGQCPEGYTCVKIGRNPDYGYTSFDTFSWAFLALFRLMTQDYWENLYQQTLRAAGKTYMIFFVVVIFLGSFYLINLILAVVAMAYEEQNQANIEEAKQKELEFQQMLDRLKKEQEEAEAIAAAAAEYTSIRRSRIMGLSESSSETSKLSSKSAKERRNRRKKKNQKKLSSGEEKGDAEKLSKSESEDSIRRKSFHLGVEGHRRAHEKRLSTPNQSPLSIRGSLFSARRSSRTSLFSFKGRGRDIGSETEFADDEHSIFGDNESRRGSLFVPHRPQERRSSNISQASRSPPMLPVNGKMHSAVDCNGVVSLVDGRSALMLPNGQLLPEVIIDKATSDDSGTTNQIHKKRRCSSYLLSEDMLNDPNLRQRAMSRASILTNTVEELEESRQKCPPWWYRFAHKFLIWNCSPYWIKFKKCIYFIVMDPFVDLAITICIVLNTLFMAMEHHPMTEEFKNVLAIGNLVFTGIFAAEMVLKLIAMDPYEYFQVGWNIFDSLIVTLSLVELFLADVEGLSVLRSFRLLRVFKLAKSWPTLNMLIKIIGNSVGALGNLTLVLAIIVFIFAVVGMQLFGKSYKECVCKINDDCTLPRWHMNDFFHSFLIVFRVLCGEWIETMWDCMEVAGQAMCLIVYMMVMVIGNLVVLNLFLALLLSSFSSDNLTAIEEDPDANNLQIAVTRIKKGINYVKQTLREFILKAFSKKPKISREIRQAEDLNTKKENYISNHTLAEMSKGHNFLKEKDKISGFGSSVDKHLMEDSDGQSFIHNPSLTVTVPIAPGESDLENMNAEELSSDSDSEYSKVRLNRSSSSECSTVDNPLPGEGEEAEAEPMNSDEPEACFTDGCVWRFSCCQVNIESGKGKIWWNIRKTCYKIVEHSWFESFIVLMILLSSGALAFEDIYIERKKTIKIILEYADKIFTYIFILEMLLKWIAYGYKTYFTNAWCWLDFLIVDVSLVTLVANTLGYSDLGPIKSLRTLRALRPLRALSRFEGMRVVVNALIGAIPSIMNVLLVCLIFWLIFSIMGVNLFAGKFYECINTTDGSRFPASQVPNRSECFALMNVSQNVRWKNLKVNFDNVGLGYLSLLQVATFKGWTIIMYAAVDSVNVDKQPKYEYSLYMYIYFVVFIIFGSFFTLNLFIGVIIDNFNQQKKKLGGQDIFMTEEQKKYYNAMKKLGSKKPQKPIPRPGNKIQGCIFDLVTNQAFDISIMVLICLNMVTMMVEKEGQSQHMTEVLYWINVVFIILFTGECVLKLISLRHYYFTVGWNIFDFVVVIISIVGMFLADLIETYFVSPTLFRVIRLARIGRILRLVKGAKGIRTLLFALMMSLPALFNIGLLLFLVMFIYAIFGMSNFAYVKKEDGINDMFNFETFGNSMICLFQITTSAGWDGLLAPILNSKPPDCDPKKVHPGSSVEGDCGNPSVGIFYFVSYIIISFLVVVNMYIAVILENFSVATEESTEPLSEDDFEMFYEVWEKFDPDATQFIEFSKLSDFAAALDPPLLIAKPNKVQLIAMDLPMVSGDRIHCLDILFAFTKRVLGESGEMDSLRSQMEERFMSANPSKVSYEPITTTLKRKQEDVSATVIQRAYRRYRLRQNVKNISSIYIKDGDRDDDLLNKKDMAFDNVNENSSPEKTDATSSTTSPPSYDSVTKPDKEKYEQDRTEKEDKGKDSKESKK

The first assay deals with recombinant human Nav1.7 (Homo sapiens (Human), UniProt Q15858). Put plainly: FRET-based membrane potential assay, recombinant human sodium channel Nav1.7. It is filed as cell-based. The following applies: HEK293 cells stably expressing recombinant human Nav1.7; veratridine + scorpion venom depolarization; read-out: FRET-Membrane Potential Nav1.7 IC50. The protocol:
FRET-Based Membrane Potential Assays.
Recombinant, Human Sodium Channel, Nav1.7.
On the day of the assay, medium was removed by aspiration, and cells were washed with assay buffer [HBSS (Invitrogen, Carlsbad, Calif.) containing 20 mM HEPES (Invitrogen, Carlsbad, Calif.)]. […] Cells were incubated for 40 minutes at room temperature in the dark. […] The cells were incubated for 90 minutes at room temperature in the dark. Fluorescence readings were made using a FLIPR®^TETRA (Molecular Devices, Sunnyvale Calif.) equipped with voltage-sensor probe optics. At the start of each experiment the optimal (EC80) concentration of depolarizing agent (veratridine) was determined by testing a dilution curve of assay buffer containing veratridine (Sigma-Aldrich, St. Louis, Mo.) and 1 mg/mL scorpion venom (SVqq, from Leiurus quinquestriatus; Sigma-Aldrich, St. Louis, Mo.). […] Test compounds in the daughter plate were diluted to (˜3×) solutions in assay buffer immediately before assaying. Using the FLIPR®^TETRA, 20 μL of the (3×) compound solutions were first added to the cells, then 20 μL of depolarizing solution (3×EC80 veratridine+SVqq) were added 3 minutes later to activate the channel. […] IC50 values were calculated from curve fits of the ratio data using a four-parameter logistic Hill equation (Accelrys Assay Explorer 3.3 Client, Accelrys, San Diego, Calif.) with percent inhibition plotted against compound concentration.
For `N#Cc1ccc(Oc2ccc3nc(C(=O)NCc4ccncc4)ccc3c2)cc1` [Example 98, 6-(4-cyanophenoxy)-N-(pyridin-4-ylmethyl)quinoline-2-carboxamide], the half-maximal inhibitory concentration (IC50) is 885 nM. On to `Cc1ccc(CNC(=O)c2ccc3cc(Oc4ccc(C#N)cc4)ccc3n2)o1` [Example 99, 6-(4-cyanophenoxy)-N-[(5-methyl-2-furyl)methyl]quinoline-2-carboxamide], for which the 50% inhibitory concentration (IC50) was determined as 5050 nM. The same measure, in the same setting: under `N#Cc1ccc(Oc2ccc3nc(C(=O)NCCCN4CCCCC4)ccc3c2)cc1` [Example 100, 6-(4-cyanophenoxy)-N-[3-(piperidin-1-yl)propyl]quinoline-2-carboxamide] stands 221 nM; under `N#Cc1ccc(Oc2ccc3nc(C(=O)NCc4cccc(OC(F)(F)F)c4)ccc3c2)cc1` [Example 102, 6-(4-cyanophenoxy)-N-[3-(trifluoromethoxy)benzyl]quinoline-2-carboxamide], > 20000 nM; under `Cc1ccc(CNC(=O)c2ccc3cc(Oc4ccc(C#N)cc4)ccc3n2)cc1` [Example 103, 6-(4-cyanophenoxy)-N-(4-methylbenzyl)quinoline-2-carboxamide], > 20000 nM. Same read-out and setting: the same measure for `N#Cc1ccc(Oc2ccc3nc(C(=O)NCc4ccc5c(c4)OCO5)ccc3c2)cc1` [Example 104, N-(1,3-benzodioxol-5-ylmethyl)-6-(4-cyanophenoxy)quinoline-2-carboxamide]: > 20000 nM. Take `COc1cccc(CNC(=O)c2ccc3cc(Oc4ccc(C#N)cc4)ccc3n2)c1OC` [Example 105, 6-(4-cyanophenoxy)-N-(2,3-dimethoxybenzyl)quinoline-2-carboxamide]: the IC50 was found to be 7250 nM. For `N#Cc1ccc(Oc2ccc3nc(C(=O)N4CCCCCC4)ccc3c2)cc1` [Example 106, 4-{[2-(azepan-1-ylcarbonyl)quinolin-6-yl]oxy}benzonitrile], the IC50 was 2420 nM. Still for that read-out and setting: the same measure for `CCCN(CCOC)C(=O)c1ccc2cc(Oc3ccc(C#N)cc3)ccc2n1` [Example 107, 6-(4-cyanophenoxy)-N-(2-methoxyethyl)-N-propylquinoline-2-carboxamide]: 4120 nM; for `CCOCCNC(=O)c1ccc2cc(Oc3ccc(C#N)cc3)ccc2n1` [Example 108, 6-(4-cyanophenoxy)-N-(2-ethoxyethyl)quinoline-2-carboxamide]: 2410 nM; for `N#Cc1ccc(Oc2ccc3nc(C(=O)NC4CCN(Cc5ccccc5)C4)ccc3c2)cc1` (centres unmarked) [Example 109, N-(1-benzylpyrrolidin-3-yl)-6-(4-cyanophenoxy)quinoline-2-carboxamide]: 660 nM. `N#Cc1ccc(Oc2ccc3nc(C(=O)N4CCCC(C(F)(F)F)C4)ccc3c2)cc1` (centres unmarked) [Example 110, 4-[(2-{[3-(trifluoromethyl)piperidin-1-yl]carbonyl}quinolin-6-yl)oxy]benzonitrile]: the IC50 is 1960 nM.

With `N#Cc1ccc(Oc2ccc3nc(C(=O)N[C@@H]4CCOC4=O)ccc3c2)cc1` [Example 113, 6-(4-cyanophenoxy)-N-[(3R)-2-oxotetrahydrofuran-3-yl]quinoline-2-carboxamide], the 50% inhibitory concentration (IC50) came out at 741 nM.

`CS(=O)(=O)NC(=O)c1ccc2cc(Oc3ccc(C#N)cc3)ccc2n1` [Example 115, 6-(4-cyanophenoxy)-N-(methylsulfonyl)quinoline-2-carboxamide]: the concentration for half-maximal inhibition (IC50) is 11200 nM. As for `N#Cc1ccc(Oc2ccc3nc(C(=O)NC4CCCOC4)ccc3c2)cc1` (centres unmarked) [Example 116, 6-(4-cyanophenoxy)-N-(tetrahydro-2H-pyran-3-yl)quinoline-2-carboxamide], the half-inhibitory concentration (IC50) turned out to be 1030 nM. Consider `CC(C)(O)CNC(=O)c1ccc2cc(Oc3ccc(C#N)cc3)ccc2n1` [Example 122, 6-(4-cyanophenoxy)-N-(2-hydroxy-2-methylpropyl)quinoline-2-carboxamide], for which the IC50 turned out to be 2490 nM. In the case of `N#Cc1ccc(Oc2ccc3nc(C(=O)N[C@H]4CC[C@H](O)CC4)ccc3c2)cc1` [Example 125, 6-(4-cyanophenoxy)-N-(trans-4-hydroxycyclohexyl)quinoline-2-carboxamide], the IC50 came out at 3460 nM. With `N#Cc1ccc(Oc2ccc3nc(C(=O)NC(CO)CO)ccc3c2)cc1` [Example 126, 6-(4-cyanophenoxy)-N-(1,3-dihydroxypropan-2-yl)quinoline-2-carboxamide], the IC50 came out at 8760 nM. Still for that read-out and setting: under `N#Cc1ccc(Oc2ccc3nc(C(=O)N[C@H]4CCC[C@@H](O)C4)ccc3c2)cc1` [Example 129, 6-(4-cyanophenoxy)-N-[(1S,3R)-3-hydroxycyclohexyl]quinoline-2-carboxamide] stands 2580 nM; under `N#Cc1ccc(Oc2ccc3nc(C(=O)N[C@H]4CC[C@@H](O)C4)ccc3c2)cc1` [Example 130, 6-(4-cyanophenoxy)-N-[(1S,3R)-3-hydroxycyclopentyl]quinoline-2-carboxamide], 2050 nM.

On to `N#Cc1ccc(Oc2ccc3nc(C(=O)N[C@H]4CCC[C@H](O)C4)ccc3c2)cc1` [Example 132, 6-(4-cyanophenoxy)-N-[(1S,3S)-3-hydroxycyclohexyl]quinoline-2-carboxamide], for which the IC50 was determined as 2700 nM.

For `N#Cc1ccc(Oc2ccc3nc(C(=O)N[C@H]4CC[C@@H](O)CC4)ccc3c2)cc1` [Example 133, 6-(4-cyanophenoxy)-N-(cis-4-hydroxycyclohexyl)quinoline-2-carboxamide], the IC50 was 1170 nM.

Staying with this assay, now noted: read-out: FRET-Membrane Potential Nav1.7 IC50.
On to `N#Cc1ccc(Oc2ccc3nc(C(=O)NCc4ccccn4)ccc3c2)cc1` [Example 97, 6-(4-cyanophenoxy)-N-(pyridin-2-ylmethyl)quinoline-2-carboxamide], for which the IC50 was determined as 842 nM. As to `N#Cc1ccc(Oc2ccc3nc(C(=O)Nc4ccc(Oc5ccccc5)cc4)ccc3c2)cc1` [Example 101, 6-(4-cyanophenoxy)-N-(4-phenoxyphenyl)quinoline-2-carboxamide], the 50% inhibitory concentration (IC50) was > 20000 nM. Regarding `N#Cc1ccc(Oc2ccc3nc(C(=O)N4CCc5ccccc54)ccc3c2)cc1` [Example 111, 4-{[2-(2,3-dihydro-1H-indol-1-ylcarbonyl)quinolin-6-yl]oxy}benzonitrile], the half-inhibitory concentration (IC50) was > 20000 nM. Take `N#Cc1ccc(Oc2ccc3nc(C(=O)N4CCNCC4)ccc3c2)cc1` [Example 112, 4-{[2-(piperazin-1-ylcarbonyl)quinolin-6-yl]oxy}benzonitrile]: the IC50 came to 1480 nM. With `N#Cc1ccc(Oc2ccc3nc(C(=O)NC4CCOC4)ccc3c2)cc1` (centres unmarked) [Example 114, 6-(4-cyanophenoxy)-N-(tetrahydrofuran-3-yl)quinoline-2-carboxamide], the IC50 was 560 nM. On to `N#Cc1ccc(Oc2ccc3nc(C(=O)N[C@@H]4CCOC4)ccc3c2)cc1` [Example 117, 6-(4-cyanophenoxy)-N-[(3R)-tetrahydrofuran-3-yl]quinoline-2-carboxamide], for which the 50% inhibitory concentration (IC50) came to 2230 nM. With `N#Cc1ccc(Oc2ccc3nc(C(=O)N[C@H]4CCOC4)ccc3c2)cc1` [Example 118, 6-(4-cyanophenoxy)-N-[(3S)-tetrahydrofuran-3-yl]quinoline-2-carboxamide], the IC50 is 2270 nM.

Regarding `N#Cc1ccc(Oc2ccc3nc(C(=O)N[C@@H]4CCCC[C@@H]4O)ccc3c2)cc1` [Example 119, 6-(4-cyanophenoxy)-N-[(1R,2S)-2-hydroxycyclohexyl]quinoline-2-carboxamide], the IC50 came out at 819 nM.

Take `N#Cc1ccc(Oc2ccc3nc(C(=O)N[C@H]4CCCC[C@@H]4O)ccc3c2)cc1` [Example 120, 6-(4-cyanophenoxy)-N-[(1S,2S)-2-hydroxycyclohexyl]quinoline-2-carboxamide]: the half-inhibitory concentration (IC50) amounted to 2040 nM.

As for `N#Cc1ccc(Oc2ccc3nc(C(=O)N[C@H]4CCC[C@@H]4O)ccc3c2)cc1` [Example 121, 6-(4-cyanophenoxy)-N-[(1S,2S)-2-hydroxycyclopentyl]quinoline-2-carboxamide], the IC50 stood at 1660 nM. As for `N#Cc1ccc(Oc2ccc3nc(C(=O)NC4(CO)CC4)ccc3c2)cc1` [Example 123, 6-(4-cyanophenoxy)-N-[1-(hydroxymethyl)cyclopropyl]quinoline-2-carboxamide], the concentration for half-maximal inhibition (IC50) came to 6550 nM. For the compound `CC(C)(CO)NC(=O)c1ccc2cc(Oc3ccc(C#N)cc3)ccc2n1` [Example 124, 6-(4-cyanophenoxy)-N-(1-hydroxy-2-methylpropan-2-yl)quinoline-2-carboxamide], the concentration for half-maximal inhibition (IC50) was 2140 nM. For the compound `CC(CO)NC(=O)c1ccc2cc(Oc3ccc(C#N)cc3)ccc2n1` (centres unmarked) [Example 127, 6-(4-cyanophenoxy)-N-(1-hydroxypropan-2-yl)quinoline-2-carboxamide], the IC50 amounted to 4070 nM. For the compound `CC(O)CNC(=O)c1ccc2cc(Oc3ccc(C#N)cc3)ccc2n1` (centres unmarked) [Example 128, 6-(4-cyanophenoxy)-N-(2-hydroxypropyl)quinoline-2-carboxamide], the IC50 came out at 2850 nM. Still for that read-out and setting: under `N#Cc1ccc(Oc2ccc3nc(C(=O)N[C@@H]4CCC[C@@H]4O)ccc3c2)cc1` [Example 131, 6-(4-cyanophenoxy)-N-[(1R,2S)-2-hydroxycyclopentyl]quinoline-2-carboxamide] stands 1150 nM; under `CC(O)C(C)NC(=O)c1ccc2cc(Oc3ccc(C#N)cc3)ccc2n1` (centres unmarked) [Example 134, 6-(4-cyanophenoxy)-N-(3-hydroxybutan-2-yl)quinoline-2-carboxamide], 2320 nM.
